The source of these data is PubChem BioAssay (NCI).

Assay in all cases: growth of human tumour cells (NCI), 48 h
In experiment [1] the test system is COLO 205 colon.
For experiment [2], the system named is M14 melanoma.
The test system of experiment [3] is UACC-257 melanoma.
Experiment [4] concerns SK-MEL-28 melanoma.
Experiment [5] deals with SW-620 colon.
Experiment [6] deals with RXF 393 renal.
The subject of experiment [7] is RPMI-8226 leukemia.
Experiment [8] concerns LOX IMVI melanoma.
Experiment [9] deals with MDA-MB-231 breast.
For experiment [10], the system named is SF-539 CNS.

Structures are written as SMILES. “And” between values parts separate entries of the source, which are not always exact repeats. Identical values can stand only once.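 Method: 48-hour compound exposure of cells in 96-well plates, five concentrations, linear interpolation of endpoints. GI50: concentration for 50% inhibition of growth. TGI is the concentration that stops growth completely.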

`CCc1ccc([O-])c(C=NCCCN(C)CCCN=Cc2cc(C)ccc2[O-])c1.[Co+3].[N-]=[N+]=[N-]`: the GI50 in experiment [1] is 50 µg/mL and > 150 µg/mL; in experiment [2] it was 50 µg/mL; in experiment [3], 50 µg/mL and > 150 µg/mL; in experiment [4] it was 50 µg/mL and 91.8 µg/mL; in [5], 50 µg/mL and > 150 µg/mL; in experiment [6], 5.76 µg/mL and 20.4 µg/mL. Also, the GI50 in experiment [7] is 50 µg/mL and 73.5 µg/mL; in [8], 41.3 µg/mL; in experiment [9], 15.2 µg/mL; in experiment [10] it was 50 µg/mL and 22.7 µg/mL. The TGI in [1] is 50 µg/mL and > 150 µg/mL; in experiment [2], 50 µg/mL; in experiment [3], 50 µg/mL and > 150 µg/mL; in experiment [4] it was 50 µg/mL and > 150 µg/mL; in [5], 50 µg/mL and > 150 µg/mL; in experiment [6] it was 35.5 µg/mL and 46 µg/mL. Also, the TGI in experiment [7] was 50 µg/mL and > 150 µg/mL; in [8], > 150 µg/mL; in [9], 38.5 µg/mL; in [10] it was 50 µg/mL and 82.3 µg/mL.
As to `Fc1ccc(-c2nn3c(COc4ccc(Cl)cc4Cl)nnc3s2)cc1Oc1ccccc1`, the GI50 was 19.6 µM in [1]; 23 µM in experiment [2]; 55.4 µM in experiment [3]; 15.8 µM in experiment [4]; 36.9 µM in [5]; 18.7 µM in experiment [6]. The GI50 in [7] was 18.3 µM; in experiment [8], 14.6 µM; in experiment [9], 11.6 µM; in [10], 18 µM. The TGI in experiment [1] was > 100 µM; in experiment [2] it was 67.2 µM; in [3], > 100 µM; in experiment [4], 42.9 µM; in experiment [5], > 100 µM; in experiment [6] it was 45.9 µM. Further, the TGI in experiment [7] was 39.1 µM; in [8], 29 µM; in experiment [9], 23.8 µM; in experiment [10], 32.3 µM.
With `Nc1ccc(C(=O)Nc2ccccc2N)cc1`, the TGI was 45.2 µM in experiment [1]; > 100 µM in [2]; > 72.5 µM in experiment [3]; > 100 µM in experiment [4]; > 100 µM in experiment [5]; > 100 µM in [6]. Besides, the TGI in [7] is 98.8 µM; in [8], > 75.8 µM; in experiment [9], > 100 µM; in experiment [10], > 100 µM.
Take `CC12CC(=O)C3C(CCC4=CC(=O)CCC43C)C1CC=C2CC(=O)O` (stereo unspecified): the TGI in experiment [1], in experiment [2], in [3], in [4], in experiment [5] and in [6] was > 100 µM throughout. Further, the TGI in experiment [7], in experiment [8], in experiment [9] and in experiment [10] was > 100 µM each time.
`COc1ccc(-c2nc3sccn3c2-c2ccnc(NCCCNS(=O)(=O)c3ccc(F)cc3)n2)cc1`: the GI50 in experiment [1] is 1.89 µM; in [2], 2.54 µM; in experiment [3], 2.85 µM; in experiment [4], 2.29 µM; in [5], 3.87 µM; in [6], 3.13 µM. For the same compound, the GI50 is 1.6 µM in [7], 1.91 µM in experiment [8], 4.18 µM in experiment [9] and 2.91 µM in experiment [10]. The TGI in [1] was 8.15 µM; in experiment [2], 10.2 µM; in experiment [3], > 100 µM; in experiment [4], 6.86 µM; in [5], 44.4 µM; in experiment [6], 13.1 µM. For the same compound, the TGI in experiment [7] was 5.37 µM; in experiment [8], 5.82 µM; in experiment [9] it was > 100 µM; in experiment [10], 8.67 µM.
As to `COc1cc(-c2nn(-c3cccc(NC(=O)CCN4CCN(C)CC4)c3)cc2-c2ccncc2)ccc1Cl`, the GI50 in experiment [1] was 1.09 µM; in [2] it was 1.09 µM; in experiment [3], 1.44 µM; in [4], 1.48 µM; in experiment [5], 0.443 µM; in [6], 1.09 µM. The GI50 in experiment [7] is 1.77 µM; in experiment [8], 0.922 µM; in experiment [9], 1.69 µM; in experiment [10], 1.55 µM. The TGI stood at 2.47 µM in experiment [1]; 2.71 µM in [2]; 3.07 µM in [3]; 2.99 µM in experiment [4]; 1.86 µM in [5]; 2.77 µM in [6]. For the same compound, the TGI worked out at 4.56 µM in experiment [7], 2.22 µM in experiment [8], 3.66 µM in experiment [9] and 3.06 µM in experiment [10].
In the case of `O=c1[nH]c(SCc2ccccc2[N+](=O)[O-])nc2nc[nH]c12`, the TGI in experiment [1], in experiment [2], in [3], in experiment [4], in [5] and in experiment [6] was > 100 µM each time. For the same compound, the TGI in experiment [7], in [8], in experiment [9] and in experiment [10] was > 100 µM each time. The GI50 in experiment [9] was > 100 µM and 40.8 µM.
Regarding `N#Cc1ccc(/C=C/C(=O)c2ccccc2)cc1`, the GI50 in experiment [1] is 6.34 µM and 14.3 µM; in [2] it was 11.3 µM and 13.4 µM; in [3], 13.6 µM and 15.6 µM; in [4], 15.5 µM and 5.18 µM; in experiment [5], 2.72 µM and 1.77 µM; in [6], 7.15 µM and 5.93 µM. The GI50 in [7] is 2.32 µM and 1.93 µM; in experiment [8], 2.41 µM and 3.3 µM; in experiment [9] it was 15 µM and 15.1 µM; in experiment [10] it was 13.9 µM and 15.9 µM. Besides, the TGI in [1] is 16.3 µM and 27.9 µM; in [2] it was > 50.5 µM and 27.8 µM; in [3] it was 26.4 µM and 29.5 µM; in [4], 28.8 µM and 14.9 µM; in experiment [5] it was 7.73 µM and 3.45 µM; in [6], 19.3 µM and 18.2 µM. Also, the TGI in [7] was 6.4 µM and 4.83 µM; in experiment [8] it was 6.12 µM and 9.23 µM; in [9], 29.3 µM and 30.1 µM; in [10], 26.9 µM and 29.4 µM.
On to `COc1cc(/C=C/c2ccccn2)cc(OC)c1OC`, for which the TGI in experiment [1], in experiment [2], in experiment [3], in experiment [4], in experiment [5] and in experiment [6] was > 10 µM throughout. Further, the TGI in experiment [7], in experiment [8], in [9] and in experiment [10] was > 10 µM each time.
Consider `Fc1ccc(-c2c(-c3ccncc3)[nH]c3nccnc23)cc1`, for which the GI50 is 5.86 µM in [1]; > 18.7 µM in [2]; > 20 µM in experiment [3]; 16.2 µM in [4]; 13.6 µM in [5]; 3.69 µM in [6]. For the same compound, the GI50 in experiment [7] was > 25 µM; in [8], 11.1 µM; in experiment [9] it was > 14.4 µM; in [10], 9.94 µM. The TGI is > 25 µM in [1]; > 25 µM in experiment [2]; > 25 µM in [3]; > 25 µM in experiment [4]; > 25 µM in experiment [5]; 9.8 µM in experiment [6]. Also, the TGI in experiment [7], in [8], in experiment [9] and in experiment [10] was > 25 µM in each case.
As to `CNCCN(C)Cc1cn[nH]c1-c1ccc(OC2CC(OCCC3CCOCC3)C2)cc1` (stereo unspecified), the GI50 was 21.2 µM in experiment [1]; > 66.3 µM in [2]; 61.6 µM in experiment [3]; > 67.9 µM in experiment [4]; > 100 µM in [5]; 48.5 µM in experiment [6]. For the same compound, the GI50 is 44.4 µM in [7], 60.1 µM in [8], 40.7 µM in experiment [9] and > 100 µM in experiment [10]. Moreover, the TGI in experiment [1] was 85.7 µM; in [2], > 100 µM; in experiment [3], > 100 µM; in [4], > 100 µM; in experiment [5], > 100 µM; in experiment [6] it was > 100 µM. The TGI in experiment [7], in experiment [8], in experiment [9] and in experiment [10] was > 100 µM throughout.
Turning to `FC(F)(F)c1ccc(NCc2nc3ccccc3[nH]2)cc1`, the GI50 in [1] was 19.2 µM; in [2], 24.7 µM; in [3], 23.5 µM; in experiment [4], 27.9 µM; in experiment [5], 35.7 µM; in experiment [6], 24.4 µM. Further, the GI50 in experiment [7] is 20.7 µM; in experiment [8], 23.2 µM; in experiment [9] it was 22.8 µM; in experiment [10] it was 36.8 µM. Besides, the TGI in experiment [1] is 34.3 µM; in experiment [2] it was > 100 µM; in [3] it was 67.9 µM; in [4], > 100 µM; in [5], > 100 µM; in experiment [6], 81.9 µM. The TGI was 67.8 µM in [7], > 100 µM in [8], 78.2 µM in experiment [9] and > 100 µM in [10].
On to `COc1ccc(/C=C2/CN(CCC#N)C/C(=C\c3ccc(OC)cc3)C2=O)cc1`, for which the GI50 in experiment [1] was 1.91 µM; in [2] it was 3.01 µM; in [3] it was 2.63 µM; in experiment [4], 1.99 µM; in experiment [5], 2.15 µM; in experiment [6], 1.7 µM. In addition, the GI50 in experiment [7] is 0.401 µM; in experiment [8] it was 1.7 µM; in experiment [9] it was 2.71 µM; in experiment [10], 2.12 µM. Further, the TGI in experiment [1] came out at 3.5 µM; in experiment [2], 9.6 µM; in [3] it was 7.44 µM; in experiment [4] it was 4.3 µM; in experiment [5], 6.72 µM; in experiment [6] it was 3.29 µM. Also, the TGI is 9.02 µM in [7], 4.03 µM in experiment [8], 15 µM in [9] and 5.42 µM in [10].
